Reference: ChEMBL document CHEMBL6153138, “Discovery of Novel Aromatic Urea-Imidazole Salt Derivatives for Cancer Therapy via Targeting ERK1/2” (J Med Chem, 2025)
pIC50: −log10 of the molar value. Activity calls are given as the source filed them. The calls are words filed in the database; no cut-off is given here.

How the values were obtained:
MCF7 [1] = assay: Activation of ERK1/2 pathway in human MCF7 cells assessed as increase in EGF-induced ERK phosphorylation at 2 uM incubated for 30 mins by Western blot analysis; assay type: cell-based; details: filed as activator
MCF7 [2] = assay: Induction of apoptosis in human MCF7 cells assessed as early apoptotic cells at 1 uM incubated for 48 hrs by Annexin V/FITC and PI staining based flow cytometry analysis (reference value: 6.64%); assay type: functional
MCF7 [3] = assay: Induction of autophagic flux in human MCF7 cells assessed as colocalization of LAMP1 at 1 uM incubated for 48 hrs in presence of chloroquine by immunofluorescence analysis; assay type: functional, cell-based
4T1 [4] = assay: Antiproliferative activity against mouse 4T1 cells incubated for 48 hrs by CCK-8 method; assay type: functional, cell-based; details: 4T1, 48 h
MCF7 [5] = assay: Upregulation of ERK1/2 phosphorylation expression in human MCF7 cells at 2 uM measured after 8 hrs by Western blot analysis; assay type: functional, cell-based
MCF7 [6] = assay: Antiproliferative activity against human MCF7 cells incubated for 48 hrs by CCK-8 method; assay type: functional, cell-based; details: MCF7, 48 h
[7] = molecular target: Mitogen-activated protein kinase 1 (Homo sapiens, UniProt P28482); assay: Induction of thermal stabilization of ERK2 (unknown origin) at 10 uM by differential scanning fluorimetry analysis
[8] = molecular target: Mitogen-activated protein kinase; ERK1/ERK2 (Homo sapiens) (UniProt P27361+P28482); assay: Binding affinity to ERK1/2 in human MCF7 cells assessed as protection of pronase-mediated protein degradation at 1 to 100 uM pre-incubated with compound for 1 hr followed by pronase digestion for 15 mins by DARTS analysis; assay type: cell-based; details: dose 1-100 µM, time 75.0 min
[9] = Clearance in Sprague-Dawley rat at 1 mg/kg, iv by LC-MS/MS analysis; assay type: ADME, organism-based; details: in vivo
MDA-MB-468 = assay: Antiproliferative activity against human MDA-MB-468 cells incubated for 48 hrs by CCK-8 method; assay type: functional, cell-based; details: MDA-MB-468, 48 h
MCF7 [10] = assay: Induction of apoptosis in human MCF7 cells assessed as early apoptotic cells at 1 uM incubated for 48 hrs in presence of 3-methyladenine by Annexin V/FITC and PI staining based flow cytometry analysis (reference value: 8.14%); assay type: functional
[11] = Cmax in Sprague-Dawley rat at 1 mg/kg, iv by LC-MS/MS analysis; assay type: ADME, organism-based; details: in vivo
MCF7 [12] = assay: Induction of apoptosis in human MCF7 cells assessed as late apoptotic cells at 1 uM incubated for 48 hrs by Annexin V/FITC and PI staining based flow cytometry analysis (reference value: 2.5%); assay type: functional
MCF7 [13] = assay: Upregulation of caspase3 protein expression in human MCF-7 cells at 1 uM incubated for 6 hrs in presence of chloroquine by Western blot analysis; assay type: functional, cell-based
[14] = Cmax in Sprague-Dawley rat at 10 mg/kg, po by LC-MS/MS analysis; assay type: ADME, organism-based; details: in vivo
MCF7 [15] = assay: Effect on MEK1/2 expression in human MCF7 cells at 0.5 to 2 uM measured after 30 mins to 4 hrs by Western blot analysis; assay type: functional, cell-based; details: dose 0.5-2 µM, time 30-240 min
Mitochondrial membrane = assay: Induction of mitochondrial membrane potential loss in human MCF7 cells assessed as increase in JC-1 monomers by measuring increase in green fluorescence at 1 uM by flow cytometry analysis (reference value: 38.0%); assay type: cell membranes
4T1 [16] = assay: Antitumor activity against mouse 4T1 cells implanted in female BALB/c mouse model assessed as increase in tumor cell necrosis at 50 mg/kg, po qd measured for 18 days in presence of chloroquine; assay type: functional, organism-based; details: time 18.0 day
MCF7 [17] = assay: Upregulation of C-caspase3 protein expression in human MCF-7 cells at 1 uM incubated for 6 hrs in presence of chloroquine by Western blot analysis; assay type: functional, cell-based
MCF7 [18] = assay: Induction of autophagy in human MCF7 cells assessed as increase in MDC positive cells at 0.5 to 2 uM by MDC staining based microscopic analysis; assay type: functional, cell-based; details: dose 0.5-2 µM
MCF7 [19] = assay: Activation of ERK1/2 pathway in human MCF7 cells assessed as increase in EGF-induced p90RSK phosphorylation at 2 uM incubated for 30 mins by Western blot analysis; assay type: cell-based
MCF7 [20] = assay: Induction of apoptosis in human MCF7 cells assessed as early apoptotic cells at 1 uM incubated for 48 hrs by Annexin V/FITC and PI staining based flow cytometry analysis (reference value: 1.1%); assay type: functional
MCF7 [21] = assay: Induction of apoptosis in human MCF7 cells assessed as late apoptotic cells at 1 uM incubated for 48 hrs in presence of 3-methyladenine by Annexin V/FITC and PI staining based flow cytometry analysis (reference value: 6.21%); assay type: functional
4T1-Luc [22] = assay: Anti-metastatic activity in mouse 4T1-Luc cells assessed as reduction in fluorescence intensity at 25 to 50 mg/kg, po measured after 16 days; assay type: functional, organism-based; details: dose 25-50 mg/kg, time 16.0 day
[23] = AUC (0 to t) in Sprague-Dawley rat at 10 mg/kg, po by LC-MS/MS analysis; assay type: ADME, organism-based; details: in vivo
[24] = Toxicity in female BALB/c mouse assessed as effect on heart at 50 mg/kg, po qd measured after 18 days in presence of chloroquine by H and E staining based analysis; assay type: organism-based; details: in vivo, 432 h, time 18 day
[25] = Toxicity in female BALB/c mouse assessed as effect on kidney at 50 mg/kg, po qd measured after 18 days in presence of chloroquine by H and E staining based analysis; assay type: organism-based; details: in vivo, 432 h, time 18 day
4T1-Luc [26] = assay: Anti-metastatic activity in mouse 4T1-Luc cells assessed as reduction in number of tumor metastatic nodules at 25 to 50 mg/kg, po measured after 20 days; assay type: functional, organism-based; details: dose 25-50 mg/kg, time 20.0 day
MCF7 [27] = assay: Inhibition of cell migration in human MCF7 cells at 0.5 to 2 uM incubated for 48 hrs by wound healing assay; assay type: functional, cell-based; details: dose 0.5-2 µM
MCF7 [28] = assay: Induction of autophagic flux in human MCF7 cells assessed as increase in LC3B-II expression at 1 uM incubated for 48 hrs in presence of chloroquine by Western blot analysis; assay type: functional, cell-based
4T1 [29] = assay: Antitumor activity against mouse 4T1 cells implanted in female BALB/c mouse model assessed as increase in ERK1/2 phosphorylation at 50 mg/kg, po qd measured from 12 to 24 hrs by immunohistochemical analysis; assay type: functional, organism-based; details: time 12-24 hrs
[30] = Toxicity in female BALB/c mouse assessed as effect on lung at 25 to 50 mg/kg, po qd measured after 18 days by H and E staining based analysis; assay type: organism-based; details: in vivo, 432 h, dose 25-50 mg/kg, time 18 day
MCF7 [31] = assay: Antiproliferative activity against human MCF7 cells harbouring ERK2 knockout incubated for 48 hrs by CCK-8 method; assay type: functional, cell-based
4T1 [32] = assay: Antitumor activity against mouse 4T1 cells implanted in female BALB/c mouse model assessed as increase in ERK1/2 phosphorylation at 50 mg/kg, po qd measured from 30 mins to 8 hrs by immunohistochemical analysis; assay type: functional, organism-based; details: time 30-480 min
MCF7 [33] = assay: Inhibition of proliferation in human MCF7 cells at 0.5 to 2 uM incubated for 48 hrs by EdU incorporation assay; assay type: functional, cell-based; details: dose 0.5-2 µM

Sequence of Mitogen-activated protein kinase 1 (P28482 whole entry): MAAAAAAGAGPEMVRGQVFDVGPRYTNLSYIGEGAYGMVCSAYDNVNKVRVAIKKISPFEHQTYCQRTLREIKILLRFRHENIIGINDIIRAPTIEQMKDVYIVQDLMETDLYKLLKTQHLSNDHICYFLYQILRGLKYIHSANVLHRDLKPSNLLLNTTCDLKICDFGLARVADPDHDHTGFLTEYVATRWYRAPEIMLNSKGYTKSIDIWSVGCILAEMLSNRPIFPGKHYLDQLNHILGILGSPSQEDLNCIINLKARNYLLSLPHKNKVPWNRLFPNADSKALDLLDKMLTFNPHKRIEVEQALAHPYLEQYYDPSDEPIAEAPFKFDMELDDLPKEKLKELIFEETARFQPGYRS
Sequence of Mitogen-activated protein kinase; ERK1/ERK2 (Homo sapiens) (P27361 whole entry, looked up): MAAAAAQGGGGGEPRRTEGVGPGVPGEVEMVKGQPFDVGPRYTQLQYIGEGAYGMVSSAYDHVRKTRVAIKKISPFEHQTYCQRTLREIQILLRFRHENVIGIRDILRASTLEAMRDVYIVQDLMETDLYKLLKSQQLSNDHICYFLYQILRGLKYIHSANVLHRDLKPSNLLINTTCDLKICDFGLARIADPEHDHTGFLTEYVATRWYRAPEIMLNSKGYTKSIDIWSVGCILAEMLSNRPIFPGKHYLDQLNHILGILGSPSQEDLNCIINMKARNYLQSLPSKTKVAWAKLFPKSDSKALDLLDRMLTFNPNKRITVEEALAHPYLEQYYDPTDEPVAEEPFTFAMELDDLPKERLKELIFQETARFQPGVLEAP
Sequence of Mitogen-activated protein kinase; ERK1/ERK2 (Homo sapiens) (P28482 whole entry, looked up): as the sequence (P28482 whole entry) above

SMILES: O=C(Nc1cc(C(F)(F)F)cc(C(F)(F)F)c1)N[C@@H](Cc1ccccc1)Cn1c[n+](Cc2ccc3ccccc3c2)c2ccccc21.[Br-]
- Activity (MCF7 [1]): Active
- Activity (MCF7 [2]): 4.58%
- Activity (MCF7 [3]): Active
- pIC50 (4T1 [4]): 5.56
- Activity (MCF7 [5]): Active
- pIC50 (MCF7 [6]): 6.17
- Activity [7]: Active
- Activity [8]: Active
- clearance [9]: 15.2 mL/min/kg
- pIC50 (MDA-MB-468): 5.67
- Activity (MCF7 [10]): 3.81%
- Cmax [11]: 534 ng/mL
- Activity (MCF7 [12]): 9.6%
- Activity (MCF7 [13]): Active
- Cmax [14]: 770 ng/mL
- Activity (MCF7 [15]): inactive
- Activity (Mitochondrial membrane): 48.9%
- Activity (4T1 [16]): Active
- Activity (MCF7 [17]): Active
- Activity (MCF7 [18]): Active
- Activity (MCF7 [19]): inactive
- Activity (MCF7 [20]): 11.6%
- Activity (MCF7 [21]): 25.1%
- Activity (4T1-Luc [22]): Active
- AUC(0-t) [23]: 3910 ng·h/mL
- Activity [24]: Non-toxic
- Activity [25]: Non-toxic
- Activity (4T1-Luc [26]): Active
- inhibition (MCF7 [27]): Active
- Activity (MCF7 [28]): Active
- Activity (4T1 [29]): inactive
- Activity [30]: Non-toxic
- Activity (MCF7 [31]): Not active; Compound Showed Less Sensitivity Response
- Activity (4T1 [32]): Active
- inhibition (MCF7 [33]): Active
